Source: ChEMBL document CHEMBL3779887, “Robenidine Analogues as Gram-Positive Antibacterial Agents” (J Med Chem, 2016)
≈ marks a conversion by molar mass, not a printed value. Calls of active or inactive are those of the source. The calls are words filed in the database; no cut-off is given here.

Legend:
[1] = test system: Enterococcus; assay: Antibacterial activity against vancomycin-resistant Enterococcus after 20 to 24 hrs; type: functional
[2] = test system: Pseudomonas aeruginosa; assay: Antibacterial activity against Pseudomonas aeruginosa ATCC 27853 after 20 to 24 hrs; type: functional
[3] = test system: Staphylococcus aureus; assay: Antibacterial activity against methicillin-resistant Staphylococcus aureus after 20 to 24 hrs; type: functional
[4] = test system: Escherichia coli; assay: Antibacterial activity against Escherichia coli ATCC 25922 after 20 to 24 hrs; type: functional
[5] = Cytotoxicity against human HepG2 cells after 24 hrs by WST-1 based colorimetric assay; type: cell-based
[6] = test system: Staphylococcus aureus; assay: Ratio of MBC for methicillin-sensitive Staphylococcus aureus ATCC 49775 to MIC90 for methicillin-sensitive Staphylococcus aureus ATCC 49775; type: functional
[7] = Lipophilicity, logD of the compound at pH 7.4; type: physicochemical; conditions: buffer
[8] = test system: Staphylococcus aureus; assay: Ratio of MBC for methicillin-sensitive Staphylococcus aureus ATCC 25923 to MIC90 for methicillin-sensitive Staphylococcus aureus ATCC 25923; type: functional
[9] = Solubility of the compound at pH 2; type: physicochemical; conditions: buffer
[10] = test system: Staphylococcus aureus; assay: Bactericidal activity against methicillin-resistant Staphylococcus aureus clinical isolate after 24 and 48 hrs; type: functional
[11] = Intrinsic clearance in mouse liver microsomes assessed per mg of protein; type: ADME; conditions: read-out: CLH
[12] = test system: Staphylococcus aureus; assay: Bactericidal activity against methicillin-sensitive Staphylococcus aureus ATCC 25923 after 24 and 48 hrs; type: functional
[13] = test system: Staphylococcus aureus; assay: Bactericidal activity against […] Staphylococcus aureus clinical isolate USA300 assessed as log reduction in bacterial cell number at MIC after 24 hrs by time-kill curve analysis; type: functional, organism-based
[14] = test system: Staphylococcus aureus; assay: Bactericidal activity against […] Staphylococcus aureus clinical isolate USA300 assessed as log reduction in bacterial cell number at 4 times MIC after 8 hrs by time-kill curve analysis; type: functional
[15] = test system: Staphylococcus aureus; assay: Ratio of MBC for methicillin-sensitive Staphylococcus aureus ATCC 29213 to MIC90 for methicillin-sensitive Staphylococcus aureus ATCC 29213; type: functional
[16] = Selectivity index, ratio of GI50 for human HepG2 cells to MIC50 for methicillin-sensitive Staphylococcus aureus clinical isolate; type: functional
[17] = test system: Staphylococcus aureus; assay: Antibacterial activity against methicillin-sensitive Staphylococcus aureus ATCC 49775 after 20 to 24 hrs in presence of 50% heat inactivated bovine serum; type: functional
[18] = test system: Staphylococcus aureus; assay: Bactericidal activity against methicillin-sensitive Staphylococcus aureus clinical isolate USA300 assessed as log reduction in bacterial cell number at MIC after 8 hrs by time-kill curve analysis; type: functional
[19] = test system: Staphylococcus aureus; assay: Bactericidal activity against methicillin-sensitive Staphylococcus aureus ATCC 29213 assessed as log reduction in bacterial cell number at 8 times MIC after 8 hrs by time-kill curve analysis; type: functional
[20] = test system: Staphylococcus aureus; assay: Antibacterial activity against methicillin-sensitive Staphylococcus aureus ATCC 29213 after 20 to 24 hrs in presence of 50% heat inactivated bovine serum
[21] = test system: Staphylococcus aureus; assay: Bactericidal activity against Methicillin-sensitive Staphylococcus aureus ATCC 29213 assessed as log reduction in bacterial cell number at 8 times MIC after 24 hrs by time-kill curve analysis; type: functional, organism-based
[22] = test system: Staphylococcus aureus; assay: Antibacterial activity against Staphylococcus aureus ATCC 29213 after 20 to 24 hrs in presence of 2% heat inactivated bovine serum; type: functional
[23] = test system: Staphylococcus aureus; assay: Bactericidal activity against Methicillin-sensitive Staphylococcus aureus ATCC 29213 assessed as log reduction in bacterial cell number at MIC after 8 hrs by time kill curve analysis
[24] = test system: Staphylococcus aureus; assay: Bactericidal activity against […] Staphylococcus aureus clinical isolate USA300 assessed as log reduction in bacterial cell number at 8 times MIC after 8 hrs by time-kill curve analysis; type: functional
[25] = Lipophilicity, logD of the compound at pH 3; type: physicochemical; conditions: buffer
[26] = test system: Staphylococcus aureus; assay: Bactericidal activity against methicillin-sensitive Staphylococcus aureus ATCC 29213 after 24 and 48 hrs; type: functional
[27] = test system: Staphylococcus aureus; assay: Bactericidal activity against […] Staphylococcus aureus clinical isolate USA300 assessed as log reduction in bacterial cell number at 4 times MIC after 24 hrs by time-kill curve analysis; type: functional, organism-based
[28] = test system: Staphylococcus aureus; assay: Bactericidal activity against methicillin-sensitive Staphylococcus aureus ATCC 49775 after 24 and 48 hrs; type: functional
[29] = test system: Staphylococcus aureus; assay: Bactericidal activity against methicillin-sensitive Staphylococcus aureus ATCC 29213 assessed as log reduction in bacterial cell number at MIC after 8 hrs by time-kill curve analysis; type: functional
[30] = Half life of compound in mouse liver microsomes; type: ADME
[31] = test system: Staphylococcus aureus; assay: Bactericidal activity against methicillin-sensitive Staphylococcus aureus ATCC 6538 after 24 and 48 hrs; type: functional
[32] = test system: Staphylococcus aureus; assay: Antibacterial activity against methicillin-sensitive Staphylococcus aureus ATCC 29213 after 20 to 24 hrs in presence of 50% heat inactivated bovine serum; remark: listed apart in the source
[33] = Solubility of the compound at pH 6.5; type: physicochemical; conditions: buffer
[34] = test system: Staphylococcus aureus; assay: Bactericidal activity against […] Staphylococcus aureus clinical isolate USA300 assessed as log reduction in bacterial cell number at 2 times MIC after 24 hrs by time-kill curve analysis; type: functional, organism-based
[35] = Half life of compound in human liver microsomes; type: ADME
[36] = Selectivity index, ratio of GI50 for human HEL299 cells to MIC50 for methicillin-sensitive Staphylococcus aureus clinical isolate; type: functional, HEL 299
[37] = Intrinsic clearance in human liver microsomes assessed per mg of protein; type: ADME; conditions: read-out: CLH
[38] = Toxicity in sheep erythrocytes assessed as hemolysis at 600 uM after 30 mins; type: cell-based, Ovis aries; conditions: erythrocyte, 0.5 h
[39] = test system: Escherichia coli; assay: Antibacterial activity against Escherichia coli ATCC 25922 after 20 to 24 hrs in presence of polymyxin B nonapeptide; type: functional
[40] = test system: Staphylococcus aureus; assay: Antibacterial activity against methicillin-sensitive Staphylococcus aureus ATCC 6538 after 20 to 24 hrs in presence of 50% heat inactivated bovine serum; type: functional
[41] = test system: Staphylococcus aureus; assay: Bactericidal activity against Methicillin-sensitive Staphylococcus aureus ATCC 29213 assessed as log reduction in bacterial cell number at 2 times MIC after 24 hrs by time kill curve analysis; type: functional, organism-based
[42] = test system: Staphylococcus aureus; assay: Antibacterial activity against methicillin-sensitive Staphylococcus aureus ATCC 29213 after 20 to 24 hrs in presence of 50% heat inactivated bovine serum; type: functional
[43] = test system: Staphylococcus aureus; assay: Bactericidal activity against methicillin-sensitive Staphylococcus aureus ATCC 29213 assessed as log reduction in bacterial cell number at 4 times MIC after 8 hrs by time-kill curve analysis; type: functional
[44] = Cytotoxicity against human HEL299 cells after 24 hrs by WST-1 based colorimetric assay; type: cell-based, HEL 299
[45] = test system: Staphylococcus aureus; assay: Antibacterial activity against methicillin-sensitive Staphylococcus aureus ATCC 49775 after 20 to 24 hrs; type: functional
[46] = test system: Staphylococcus aureus; assay: Antibacterial activity against methicillin-sensitive Staphylococcus aureus ATCC 6538 after 20 to 24 hrs; type: functional
[47] = Selectivity index, ratio of GI50 for human HEL299 cells to MIC50 for methicillin-resistant Staphylococcus aureus clinical isolate; type: functional, HEL 299
[48] = Selectivity index, ratio of GI50 for human HepG2 cells to MIC50 for methicillin-resistant Staphylococcus aureus clinical isolate; type: functional
[49] = test system: Staphylococcus aureus; assay: Antibacterial activity against methicillin-sensitive Staphylococcus aureus ATCC 29213 after 20 to 24 hrs; type: functional
[50] = test system: Staphylococcus aureus; assay: Bactericidal activity against […] Staphylococcus aureus clinical isolate USA300 assessed as log reduction in bacterial cell number at 8 times MIC after 24 hrs by time-kill curve analysis; type: functional, organism-based
[51] = test system: Staphylococcus aureus; assay: Ratio of MBC for methicillin-sensitive Staphylococcus aureus ATCC 6538 to MIC90 for methicillin-sensitive Staphylococcus aureus ATCC 6538; type: functional
[52] = test system: Staphylococcus aureus; assay: Antibacterial activity against methicillin-resistant Staphylococcus aureus clinical isolate after 20 to 24 hrs; type: functional
[53] = test system: Pseudomonas aeruginosa; assay: Antibacterial activity against Pseudomonas aeruginosa ATCC 27853 after 20 to 24 hrs in presence of polymyxin B nonapeptide; type: functional
[54] = test system: Staphylococcus aureus; assay: Bactericidal activity against methicillin-sensitive Staphylococcus aureus ATCC 29213 assessed as log reduction in bacterial cell number at 2 times MIC after 8 hrs by time-kill curve analysis; type: functional
[55] = test system: Staphylococcus aureus; assay: Bactericidal activity against […] Staphylococcus aureus clinical isolate USA300 assessed as log reduction in bacterial cell number at 2 times MIC after 8 hrs by time-kill curve analysis; type: functional
[56] = test system: Staphylococcus aureus; assay: Bactericidal activity against Methicillin-sensitive Staphylococcus aureus ATCC 29213 assessed as log reduction in bacterial cell number at 4 times MIC after 24 hrs by time kill curve analysis; type: functional, organism-based
[57] = test system: Staphylococcus aureus; assay: Antibacterial activity against methicillin-sensitive Staphylococcus aureus ATCC 25923 after 20 to 24 hrs; type: functional

## N=C(N/N=C/c1c(F)c(F)c(F)c(F)c1F)N/N=C/c1c(F)c(F)c(F)c(F)c1F
[1]
  MIC: > 400 µM
[2]
  MIC: > 400 µM
[3]
  MIC: > 400 µM
[4]
  MIC: > 400 µM

## CC(C)(C)c1ccc(/C=N/NC(=N)N/N=C/c2ccc(C(C)(C)C)cc2)cc1
[5]
  GI50 at 24 h: 26.3 µM
[1]
  MIC: 29 µM (≈ 10.9 µg/mL)
[6]
  Ratio: 1
[7]
  logD: > 5.3
[8]
  Ratio: 1
[9]
  solubility: < 1.6 µg/mL
[10]
  MBC: 4.8 µM (≈ 1.81 µg/mL)
[11]
  microsomal CLint: 70 µL/min/mg
[12]
  MBC: 4.8 µM (≈ 1.81 µg/mL)
[13]
  Activity: inactive
[14]
  Activity: >=4 log10CFU/ml
[15]
  Ratio: 1
[16]
  Selectivity Index: 2
[17]
  MIC90: > 250 µM
[18]
  Activity: >=4 log10CFU/ml
[19]
  Activity: >=4 log10CFU/ml
[20]
  MIC90: > 250 µM
[21]
  Activity: inactive
[22]
  MIC90: 38.6 µM
[23]
  Activity: inactive
[24]
  Activity: >=4 log10CFU/ml
[25]
  logD: 4.9
[26]
  MBC: 4.8 µM (≈ 1.81 µg/mL)
[27]
  Activity: inactive
[28]
  MBC: 4.8 µM (≈ 1.81 µg/mL)
[29]
  Activity: >=4 log10CFU/ml
[30]
  half-life: 25 min
[31]
  MBC: 4.8 µM (≈ 1.81 µg/mL)
[32]
  MIC90: > 250 µM
[33]
  solubility: < 1.6 µg/mL
[34]
  Activity: inactive
[35]
  half-life: 20 min
[36]
  Selectivity Index: 2
[37]
  microsomal CLint: 89 µL/min/mg
[38]
  Activity: Non-toxic
[39]
  MIC90: > 250 µM
[40]
  MIC90: > 250 µM
[2]
  MIC: > 400 µM
[41]
  Activity: inactive
[42]
  MIC90: > 250 µM
[43]
  Activity: >=4 log10CFU/ml
[44]
  GI50 at 24 h: 28.8 µM
[3]
  MIC: 24.2 µM (≈ 9.14 µg/mL)
[45]
  MIC90: 4.8 µM (≈ 1.81 µg/mL)
[46]
  MIC90: 4.8 µM (≈ 1.81 µg/mL)
[4]
  MIC: > 400 µM
[47]
  Selectivity Index: 2
[48]
  Selectivity Index: 2
[49]
  MIC90: 4.8 µM (≈ 1.81 µg/mL)
[50]
  Activity: inactive
[51]
  Ratio: 1
[52]
  MIC90: 4.8 µM (≈ 1.81 µg/mL)
[53]
  MIC90: > 250 µM
[54]
  Activity: >=4 log10CFU/ml
[55]
  Activity: >=4 log10CFU/ml
[56]
  Activity: inactive
[57]
  MIC90: 4.8 µM (≈ 1.81 µg/mL)

## N=C(N/N=C/c1ccccc1O)N/N=C/c1ccccc1O
[1]
  MIC: 240 µM (≈ 71.4 µg/mL)
[2]
  MIC: > 400 µM
[3]
  MIC: 36 µM (≈ 10.7 µg/mL)
[4]
  MIC: > 400 µM

## N=C(N/N=C/c1ccc(Cl)cc1N)N/N=C/c1ccc(Cl)cc1N
[1]
  MIC: 6.3 µM (≈ 2.29 µg/mL)
[2]
  MIC: > 400 µM
[3]
  MIC: 5 µM (≈ 1.82 µg/mL)
[4]
  MIC: > 400 µM

## Cc1ccccc1/C=N/NC(=N)N/N=C/c1ccccc1C
[1]
  MIC: 61 µM (≈ 17.9 µg/mL)
[2]
  MIC: > 400 µM
[3]
  MIC: 121 µM (≈ 35.5 µg/mL)
[4]
  MIC: > 400 µM
